The text below walks through data of patent US9168317B2, “In vivo imaging method of mood disorders” (GE Healthcare Limited, priority 2010, dated 2015).

The structures appear in SMILES notation. Where two headings read alike, the source gives them in different places.

The nature of data set [1]: In vivo biodistribution method. The note with it: for Brain 2 min / OB 30 min: adult male Wistar rats, 1-3 MBq via lateral tail vein; for Brain 2 min: 2 min after injection; for OB 30 min: olfactory bulb.
Description: Imaging agents of the invention were tested in an in vivo biodistribution model.
Adult male Wistar rats (200-300 g) were injected with 1-3 MBq of test compound via the lateral tail vein. At 2, 10, 30 or 60 min (n=3) after injection, rats were euthanised and tissues or fluids were sampled for radioactive measurement on a gamma counter.
For data set [2], the target named is T1, Wistar rat heart PBR (Rattus norvegicus, UniProt P16257).
T1 construct: from tissue; host or cells: Wistar rat heart
Briefly: In vitro potency assay: competition against 0.3 nM [3H]PK-11195 binding. As to the method:
Non-radioactive analogues of in vivo imaging agents of the invention were tested.
Each test compound (dissolved in 50 mM Tris-HCl, pH 7.4, 10 mM MgCl2 containing 1% DMSO) competed for binding to Wistar rat heart PBR against 0.3 nM [^3H] […] The reaction, was carried out in 50 mM Tris-HCl, pH 7.4 10 mM MgCl2 for 15 minutes at 25° C.

As for `CCN(CC)C(=O)C1CCCc2c1c1c(F)cccc1n2CC[18F]` (centres unmarked) [compound 10], the “Brain 2 min” value in data set [1] is given as 0.50 % ID/g. In data set [1] (30 min after injection), the “OB 30 min” value is 0.51 % ID/g.
Broadly, the Ki is a dissociation constant, usually derived from enzyme kinetics or from competition with a known ligand. In data set [2], `CN(Cc1ccccc1)C(=O)C1CCCc2c1c1ccccc1n2CC[18F]` (centres unmarked) [compound 7] returned a Ki of 1.25 nM. In addition, in data set [1], the “Brain 2 min” value is given as 0.55 % ID/g. Also, the “OB 30 min” value in data set [1] (30 min after injection) was determined as 0.34 % ID/g. In data set [1] (ratio olfactory bulb:striatum, 30 min after injection, Wistar rats), the “OB:Str 30 min” value is listed as 3.40.
For the compound `CCN(CC)C(=O)C1CCCc2c1c1c(OC)cccc1n2CC[18F]` (centres unmarked) [compound 5], the Ki in data set [2] (non-radioactive analogues, vs 0.3 nM [3H]PK-11195, 50 mM Tris-HCl pH 7.4, 10 mM MgCl2, 15 minutes at 25° C., read-out: Ki) came out at 1.47 nM.
`O=C(C1CCCc2c1c1ccccc1n2CC[18F])N1CCCCC1` (centres unmarked) [compound 6] showed a Ki in data set [2] of 18.3 nM.
The compound `CCN(CC)C(=O)C1CCCc2c1c1cc(F)ccc1n2CC[18F]` (centres unmarked) [compound 9] came in with a Ki in data set [2] of 3.79 nM. Moreover, the “Brain 2 min” value in data set [1] stood at 0.56 % ID/g. Besides, the “OB 30 min” value in data set [1] (30 min after injection) amounted to 0.41 % ID/g.
